# Key:
# MrgprA3 = target: T1, MrgprA3 (Mus musculus, UniProt Q91WW3); experiment: calcium imaging; assay type: cell-based; settings: agonist; dose-response in figure
# T1 sequence (Q91WW3 1-302): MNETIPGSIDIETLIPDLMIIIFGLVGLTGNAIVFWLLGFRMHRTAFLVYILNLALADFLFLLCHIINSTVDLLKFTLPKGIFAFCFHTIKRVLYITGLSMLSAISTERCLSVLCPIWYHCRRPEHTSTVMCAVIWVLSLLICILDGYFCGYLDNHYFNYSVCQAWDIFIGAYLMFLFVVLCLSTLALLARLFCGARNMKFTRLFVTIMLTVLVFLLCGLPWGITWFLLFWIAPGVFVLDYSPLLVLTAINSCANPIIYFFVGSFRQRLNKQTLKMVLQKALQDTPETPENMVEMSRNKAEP
# rat MrgprA = target: T2, rat MrgprA (Rattus norvegicus, UniProt Q7TN49); experiment: response of electroporated Mrgpr-deficient mouse DRG neurons; assay type: cell-based; settings: agonist
# T2 sequence (Q7TN49 1-304): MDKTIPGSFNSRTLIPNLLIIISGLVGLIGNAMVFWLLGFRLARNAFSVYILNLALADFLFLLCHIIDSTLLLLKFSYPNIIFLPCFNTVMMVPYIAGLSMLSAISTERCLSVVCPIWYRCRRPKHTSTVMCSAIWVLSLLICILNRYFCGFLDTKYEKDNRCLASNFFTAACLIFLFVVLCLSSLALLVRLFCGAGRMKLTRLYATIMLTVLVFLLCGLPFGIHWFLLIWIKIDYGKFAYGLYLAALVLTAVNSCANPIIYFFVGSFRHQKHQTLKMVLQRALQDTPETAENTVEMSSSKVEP
Compound,calcium imaging (fura-2) in transfected HEK293 cells (MrgprA3),response of electroporated Mrgpr-deficient mouse DRG neurons (rat MrgprA)
C=C[C@H]1CN2CC[C@H]1C[C@H]2[C@H](O)c1ccnc2ccc(OC)cc12 [quinine],"Unlike CQ, quinine weakly activates MrgprA3",
CCN(CC)CCCC(C)Nc1ccnc2cc(Cl)ccc12 (centres unmarked) [chloroquine],,Expression of rat MrgprA in Mrgpr-clusterΔ^−/− DRG neurons conferred CQ sensitivity upon them

# Source: paper PMC2989405 (Cell, 2009)
